Experimental data published in the supplement of paper PMC10307832.

Legend:
Experiment in all cases: relative viability (nuclei count vs DMSO), 5 days (fraction); higher = more cells survive
[1] = compound: Nc1ccccc1NC(=O)c1ccc(CNC(=O)OCc2cccnc2)cc1 [Entinostat] + C[C@@H](Oc1cc(-c2cnn(C3CCNCC3)c2)cnc1N)c1c(Cl)ccc(F)c1Cl [Crizotinib] (partner 1 µM)
Outline: (§1)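 Relative viability is defined as nuclei in treated wells over nuclei in vehicle wells. Duplicate plates were run and medians reported. Lung cancer cell lines in 1536-well plates were dosed by pin tool one day after seeding, with one drug or with a fixed anchor-drug dose plus five library-drug doses (not always all listed) in √10 steps, and nuclei were counted after 5 days.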

[2] = compound: Nc1ccccc1NC(=O)c1ccc(CNC(=O)OCc2cccnc2)cc1 [Entinostat] + CC(=O)c1c(C)c2cnc(Nc3ccc(N4CCNCC4)cn3)nc2n(C2CCCC2)c1=O [Palbociclib] (partner 0.5 µM)
Outline: as §1

[3] = compound: C1COCCN1C2=NC(=NC3=C2OC4=C3C=CC=N4)C5=CC(=CC=C5)NC(=O)C6=CN=C(C=C6)N + CS(=O)(=O)CCNCc1ccc(-c2ccc3ncnc(Nc4ccc(OCc5cccc(F)c5)c(Cl)c4)c3c2)o1 [Lapatinib] (partner 2 µM)
Outline: as §1

[4] = compound: Nc1ccccc1NC(=O)c1ccc(CNC(=O)OCc2cccnc2)cc1 [Entinostat] + CC(=O)Nc1cccc(-n2c(=O)n(C3CC3)c(=O)c3c(Nc4ccc(I)cc4F)n(C)c(=O)c(C)c32)c1 [Trametinib] (partner 0.02 µM)
Outline: as §1

Cell Line	relative viability ([1]; first compound 0.02 µM)	relative viability ([1]; first compound 0.06325 µM)	relative viability ([1]; first compound 0.2 µM)	relative viability ([1]; first compound 0.6325 µM)	relative viability ([1]; first compound 2 µM)	relative viability ([2]; first compound 0.02 µM)	relative viability ([2]; first compound 0.06325 µM)	relative viability ([2]; first compound 0.2 µM)	relative viability ([2]; first compound 0.6325 µM)	relative viability ([2]; first compound 2 µM)	relative viability ([3]; first compound 0.02 µM)	relative viability ([3]; first compound 0.06325 µM)	relative viability ([3]; first compound 0.2 µM)	relative viability ([3]; first compound 0.6325 µM)	relative viability ([3]; first compound 2 µM)	relative viability ([4]; first compound 0.02 µM)	relative viability ([4]; first compound 0.06325 µM)	relative viability ([4]; first compound 0.2 µM)	relative viability ([4]; first compound 0.6325 µM)	relative viability ([4]; first compound 2 µM)
NCI-H2170	1.17	1.06	1.02	0.704	0.491	0.387	0.362	0.314	0.252	0.216	0.245	0.265	0.251	0.286	0.297	0.972	0.888	0.752	0.579	0.402
HCC-366	0.447	0.407	0.283	0.0613	0.0249	0.344	0.348	0.133	0.111	0.0439	1.35	1.04	0.95	1.03	0.453	0.42	0.306	0.253	0.218	0.0673
NCI-H2405	0.85	0.887	0.906	0.805	0.598	0.515	0.531	0.571	0.532	0.453	0.983	1.05	1.04	1.02	0.902	0.647	0.722	0.651	0.608	0.542
COR-L 105	0.92	0.778	0.655	0.494	0.216	0.376	0.406	0.38	0.43	0.355	0.391	0.318	0.34	0.346	0.289	0.475	0.45	0.45	0.413	0.406
201T	1.03	1.03	0.919	0.743	0.754	0.384	0.376	0.426	0.378	0.373	0.957	1.02	0.984	1.04	1.01	0.746	0.72	0.684	0.716	0.545
NCI-H2228	0.479	0.429	0.337	0.378	0.221	0.617	0.747	0.691	0.35	0.244	1.1	1.2	0.89	1.06	0.604	0.466	0.587	0.524	0.224	0.183
LCLC-103H	0.968	1.03	0.992	0.801	0.631	0.526	0.438	0.406	0.429	0.427	–	–	–	–	–	0.718	0.605	0.713	0.588	0.561
NCI-H2087	0.716	0.672	0.818	0.559	0.467	0.252	0.209	0.174	0.0887	0.0971	1.11	1.09	1.07	0.997	0.807	0.189	0.193	0.169	0.136	0.141
NCI-H358	0.545	0.519	0.463	0.209	0.0928	0.134	0.14	0.17	0.127	0.125	0.438	0.45	0.34	0.387	0.355	0.175	0.164	0.135	0.117	0.127
H3255	0.9	0.747	0.777	0.452	0.286	0.339	0.345	0.348	0.301	0.27	0.241	0.238	0.23	0.238	0.293	0.681	0.57	0.528	0.402	0.295
NCI-H23	0.5	0.545	0.407	0.39	0.166	0.568	0.661	0.507	0.509	0.283	1.43	1.15	1.18	0.988	0.719	0.411	0.475	0.483	0.394	0.215
CAL-12T	0.7	0.732	0.864	0.594	0.251	0.516	0.602	0.637	0.384	0.266	0.663	0.701	0.632	0.604	0.472	0.362	0.306	0.355	0.297	0.252
A-427	0.808	1.06	0.864	0.665	0.545	0.555	0.537	0.463	0.401	0.368	1.06	1.04	0.91	1.1	0.677	0.882	0.921	0.866	0.639	0.523
HARA	1.02	1.02	1.05	0.974	0.565	0.301	0.298	0.258	0.272	0.266	0.749	0.699	0.803	0.707	0.502	0.903	0.983	0.696	0.647	0.48
NCI-H1793	–	–	–	–	–	0.329	0.321	0.263	0.248	0.189	0.884	0.971	0.575	0.56	0.405	0.465	0.387	0.31	0.304	0.292
NCI-H2023	0.526	0.596	0.324	0.17	0.109	0.319	0.312	0.258	0.151	0.0658	0.759	0.798	0.618	0.565	0.471	0.467	0.473	0.226	0.127	0.0998
